Data reported in US11524940B1, “Inhibitors of cysteine proteases and methods of use thereof” (priority 2020, dated 2022).

Assays:
[1] = target: SARS-CoV2 Mpro (Severe acute respiratory syndrome coronavirus 2 (2019-nCoV) (SARS-CoV-2), UniProt P0DTD1); experiment: COVID-19 (SARS-CoV2) Mpro enzymatic assay; assay type: biochemical; conditions: 25 nM Mpro, 25 μM substrate
[2] = target: 229E Mpro (Human coronavirus 229E (HCoV-229E), UniProt P0C6X1); experiment: 229E Mpro activity; assay type: biochemical; conditions: read-out: 229E Mpro EC50
Chain of 229E Mpro (P0C6X1 2966-3267 limits assumed): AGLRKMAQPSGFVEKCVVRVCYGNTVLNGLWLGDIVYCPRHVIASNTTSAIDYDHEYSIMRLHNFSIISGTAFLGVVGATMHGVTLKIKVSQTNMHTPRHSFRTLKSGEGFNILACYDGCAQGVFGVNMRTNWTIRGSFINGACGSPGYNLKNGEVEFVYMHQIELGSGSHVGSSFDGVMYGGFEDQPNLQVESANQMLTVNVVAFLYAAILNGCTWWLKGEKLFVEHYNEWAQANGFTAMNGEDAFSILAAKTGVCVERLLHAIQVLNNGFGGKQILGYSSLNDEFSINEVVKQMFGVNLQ
Experimental: Compounds are assayed using standard methods to assess compound activity and IC50. […] The assay buffer contains 20 mM of Tris-HCl (pH 7.3), 100 mM of NaCl, 1 mM of EDTA, 5mM of TCEP and 0.1% BSA.

Row | SMILES | IC50 [1] [µM] | EC50 [2] [µM]
1 | N#C[C@H](C[C@@H]1CCCNC1=O)NC(=O)C1CC2(CCC(F)(F)CC2)CN1C(=O)c1cc2cccc(Cl)c2[nH]1 (single isomer, unassigned) [805 (Isomer 1)] | 10 to 30 | > 30
2 | N#C[C@H](C[C@@H]1CCCNC1=O)NC(=O)C1CC2(CN1C(=O)c1cc3cccc(Cl)c3[nH]1)CC(F)(F)C2 (single isomer, unassigned) [743 (Isomer 2)] | < 2 | < 2
3 | N#C[C@H](C[C@@H]1CCCNC1=O)NC(=O)C1CC2(CCC2)CN1C(=O)c1cc2c(Cl)cccc2[nH]1 (single isomer, unassigned) [803 (Isomer 1)] | > 30 | > 30
4 | COc1ccc(Cl)c2[nH]c(C(=O)N3CC4(CCCCC4)CC3C(=O)NC(C#N)C[C@@H]3CCCNC3=O)cc12 (single isomer, unassigned) [902 (Isomer 3)] | < 2 | < 2
5 | COc1cccc2[nH]c(C(=O)N3Cc4ccccc4C3C(=O)N[C@H](C#N)C[C@@H]3CCNC3=O)cc12 (single isomer, unassigned) [429A (Isomer 2)] | > 30 | > 30
6 | CC1(C)CC(C[C@@H](C#N)NC(=O)C2CC3(CCCCC3)CN2C(=O)c2cc3cccc(Cl)c3[nH]2)C(=O)N1 (single isomer, unassigned) [930 (Isomer 1)] | 10 to 30 | > 30
7 | CC1(C)CC(C[C@@H](C#N)NC(=O)C2CC3(CCCCC3)CN2C(=O)c2cc3cccc(Cl)c3[nH]2)C(=O)N1 (single isomer, unassigned) [930 (Isomer 2)] | 10 to 30 | > 30
8 | N#C[C@H](C[C@@H]1CCCNC1=O)NC(=O)C1CC2(CCC(F)(F)CC2)CN1C(=O)c1cc2cccc(Cl)c2[nH]1 (single isomer, unassigned) [805 (Isomer 2)] | < 2 | < 2
9 | COc1cccc2[nH]c(C(=O)N[C@@H](CC3CC3)C(=O)N[C@H](C#N)Cc3ccccn3)cc12 [Compound 439, N-[(1S)-2-[[(1S)-1-cyano-2-(2-pyridyl)ethyl]amino]-1-(cyclopropylmethyl)-2-oxo-ethyl]-4-methoxy-1H-indole-2-carboxamide] | 10 to 30 | > 30
10 | COc1cccc2[nH]c(C(=O)N3CC4(CCC(F)(F)CC4)CC3C(=O)N[C@H](C#N)C[C@@H]3CCCNC3=O)cc12 (single isomer, unassigned) [982 (Isomer 2)] | > 30 | > 30
11 | COc1ccc(Cl)c2[nH]c(C(=O)N3CC4(CCCCC4)CC3C(=O)N[C@H](C#N)C[C@@H]3CCNC3=O)cc12 (single isomer, unassigned) [882 (Isomer 1)] | < 2 | < 2
12 | COc1cccc2[nH]c(C(=O)N[C@@H](CC3CC3(F)F)C(=O)N[C@H](C#N)C[C@@H]3CCCNC3=O)cc12 (single isomer, unassigned) [1059 (Isomer 1)] | < 2 | < 2
13 | N#C[C@H](C[C@@H]1CCCNC1=O)NC(=O)C1CC2(CCCCC2)CN1C(=O)c1cc2c(Cl)cccc2[nH]1 (single isomer, unassigned) [801 (Isomer 1)] | < 2 | < 2
14 | CC(C)(C)OC(=O)N1CCCCC12CCN(C(CC1CC1)C(=O)N[C@H](C#N)C[C@@H]1CCNC1=O)C2=O (single isomer, unassigned) [473 (Isomer 1)] | > 30 | > 30
15 | COc1cccc2[nH]c(C(=O)N3CC4(CCC(F)(F)CC4)CC3C(=O)N[C@H](C#N)C[C@@H]3CCCNC3=O)cc12 (single isomer, unassigned) [982 (Isomer 1)] | < 2 | < 2
16 | COc1cc(Cl)cc2[nH]c(C(=O)N3CC4(CCCCC4)CC3C(=O)N[C@H](C#N)C[C@@H]3CCCNC3=O)cc12 (single isomer, unassigned) [908 (Isomer 2)] | 2 to 10 | 2 to 10
17 | N#C[C@H](C[C@@H]1CCCNC1=O)NC(=O)C1CC2(CCC2)CN1C(=O)c1cc2ccc(Cl)cc2[nH]1 (single isomer, unassigned) [791 (Isomer 2)] | < 2 | < 2
18 | CC1(C)CC(C[C@@H](C#N)NC(=O)C2CC3(CCCCC3)CN2C(=O)c2cc3cccc(Cl)c3[nH]2)C(=O)N1 (single isomer, unassigned) [930 (Isomer 6)] | < 2 | < 2
19 | CC1(C)CC(C[C@@H](C#N)NC(=O)[C@H](CC2CC2)NC(=O)c2cc3cccc(Cl)c3[nH]2)C(=O)N1 (single isomer, unassigned) [1053 (Isomer 4)] | < 2 | 

Row | SMILES | IC50 [1] [µM] | EC50 [2] [µM]
20 | COc1cccc2[nH]c(C(=O)N3C[C@H](SC)C[C@H]3C(=O)N[C@H](C#N)C[C@@H]3CCNC3=O)cc12 [Compound 551, (2S,4R)-N-[(1S)-1-cyano-2-[(3S)-2-oxopyrrolidin-3-yl]ethyl]-1-(4-methoxy-1H-indole-2-carbonyl)-4-methylsulfanyl-pyrrolidine-2-carboxamide] |  | < 2
21 | N#C[C@H](C[C@@H]1CCNC1=O)NC(=O)[C@H](CC1CC1)N1CCC2(CCCN2)C1=O (stereo partly drawn) [Compound 471, N-[(1S)-1-cyano-2-[(3S)-2-oxopyrrolidin-3-yl]ethyl]-3-cyclopropyl-2-(6-oxo-1,7-diazaspiro[4.4]nonan-7-yl)propanamide] |  | 10 to 30
22 | COc1cccc2[nH]c(C(=O)N3C[C@H](OC)C[C@H]3C(=O)N[C@H](C#N)C[C@@H]3CCNC3=O)cc12 [Compound 407] |  | < 2
23 | N#C[C@H](C[C@@H]1CCCNC1=O)NC(=O)[C@H](CC1CC1)NC(=O)c1cc2c(F)cc(Cl)cc2[nH]1 [Compound 838, 6-chloro-N-[(1S)-2-[[(1S)-1-cyano-2-[(3S)-2-oxo-3-piperidyl]ethyl]amino]-1-(cyclopropylmethyl)-2-oxo-ethyl]-4-fluoro-1H-indole-2-carboxamide] |  | < 2
24 | N#C[C@H](C[C@@H]1CCCNC1=O)NC(=O)[C@H](CC1CC1)NC(=O)c1cc2cnccc2[nH]1 [Compound 625, N-((S)-1-(((S)-1-cyano-2-((S)-2-oxopiperidin-3-yl)ethyl)amino)-3-cyclopropyl-1-oxopropan-2-yl)-1H-pyrrolo[3,2-c]pyridine-2-carboxamide] |  | < 2
25 | COc1cccc2[nH]c(C(=O)N[C@@H](CC3CC3)C(=O)N[C@](C)(C#N)CC3CCNC3=O)cc12 (single isomer, unassigned) [1055 (Isomer 1)] |  | > 30
26 | N#C[C@H](C[C@@H]1CCNC1=O)NC(=O)[C@@H]1CCCNN1C(=O)/C=C/c1ccc(Cl)cc1F [Compound 213, (3S)-2-[(E)-3-(4-chloro-2-fluoro-phenyl)prop-2-enoyl]-N-[(1S)-1-cyano-2-[(3S)-2-oxopyrrolidin-3-yl]ethyl]hexahydropyridazine-3-carboxamide] |  | > 30
27 | COc1cccc2[nH]c(C(=O)N3CC4(CCCC4)C[C@H]3C(=O)N[C@H](C#N)C[C@@H]3CCNC3=O)cc12 (single isomer, unassigned) [401 (Isomer 2)] |  | 2 to 10
28 | COc1cccc2[nH]c(C(=O)N[C@@H](CC3CC3)C(=O)N[C@@]3(C#N)C[C@H]4CC[C@@H]3[C@H]3C(=O)NC(=O)[C@@H]43)cc12 (single isomer, unassigned) [489 (Isomer 1)] |  | > 30
29 | CC(C)(C)C[C@H](NC(=O)c1cc2c(Cl)cc(Cl)cc2[nH]1)C(=O)N[C@H](C#N)C[C@@H]1CCCNC1=O [Compound 795, 4,6-dichloro-N-((S)-1-(((S)-1-cyano-2-((S)-2-oxopiperidin-3-yl)ethyl)amino)-4,4-dimethyl-1-oxopentan-2-yl)-1H-indole-2-carboxamide] |  | < 2
30 | COc1cccc2[nH]c(C(=O)N[C@@H](CC(C)C)C(=O)N[C@@H](C[C@@H]3CCNC3=O)C3OC(=O)N(c4ccccc4)C3=N)cc12 (stereo partly drawn) [Compound 359, N-[(1S)-1-[[(1S)-1-(4-imino-2-oxo-3-phenyl-oxazolidin-5-yl)-2-[(3S)-2-oxopyrrolidin-3-yl]ethyl]carbamoyl]-3-methyl-butyl]-4-methoxy-1H-indole-2-carboxamide] |  | 10 to 30
31 | COc1cccc2[nH]c(C(=O)N[C@@H](CC(C)C)C(=O)NC(C#N)Cc3n[nH]c4ccccc34)cc12 (mixture of isomers) [Compound 245, N-[(1S)-1-[[1-cyano-2-(1H-indazol-3-yl)ethyl]carbamoyl]-3-methyl-butyl]-4-methoxy-1H-indole-2-carboxamide] |  | > 30
32 | COc1cccc2[nH]c(C(=O)N3C[C@H](C(C)(C)C)C[C@H]3C(=O)N[C@H](C#N)C[C@@H]3CCNC3=O)cc12 [Compound 655, (2S,4S)-4-(tert-butyl)-N-((S)-1-cyano-2-((S)-2-oxopyrrolidin-3-yl)ethyl)-1-(4-methoxy-1H-indole-2-carbonyl)pyrrolidine-2-carboxamide] |  | 10 to 30
33 | N#C[C@H](C[C@@H]1CCCNC1=O)NC(=O)[C@H](CC1CC1)NC(=O)c1cc2c(Cl)cccc2[nH]1 [Compound 812, 4-chloro-N-[(1S)-2-[[(1S)-1-cyano-2-[(3S)-2-oxo-3-piperidyl]ethyl]amino]-1-(cyclopropylmethyl)-2-oxo-ethyl]-1H-indole-2-carboxamide] |  | < 2
34 | N#C[C@H](C[C@@H]1CCNC1=O)NC(=O)C1CC2(CCCCC2)CN1C(=O)c1cc2cccc(Cl)c2[nH]1 (single isomer, unassigned) [984 (Isomer 2)] |  | > 30
35 | N#C[C@H](C[C@@H]1CCNC1=O)NC(=O)[C@H](CC1CC1)n1ccc2[nH]cnc2c1=O [Compound 269, (2S)-N-[(1S)-1-cyano-2-[(3S)-2-oxopyrrolidin-3-yl]ethyl]-3-cyclopropyl-2-(4-oxo-3H-imidazo[4,5-c]pyridin-5-yl)propanamide] |  | > 30
36 | COc1cccc2[nH]c(C(=O)N3CC4(CCCCC4)CC3C(=O)N[C@H](C#N)C[C@@H]3CCNC3=O)cc12 (single isomer, unassigned) [389A (Isomer 1)] |  | < 2
37 | N#C[C@H](C[C@@H]1CCCNC1=O)NC(=O)[C@H](CC1CC1)NC(=O)c1cc2c(Cl)cc(Cl)cc2[nH]1 [Compound 840, 4,6-dichloro-N-[(1S)-2-[[(1S)-1-cyano-2-[(3S)-2-oxo-3-piperidyl]ethyl]amino]-1-(cyclopropylmethyl)-2-oxo-ethyl]-1H-indole-2-carboxamide] |  | < 2
